Where “and” joins values, the source holds several entries; their conditions need not be identical. Identical values can stand only once. Counter-ions that a name gives are not always drawn. Marks after values point to notes of the source that are not given here.
Columns and labels:
HBV GT B (wild-type HBV) [1] = system: HBV GT B (wild-type HBV); parameters: method as in PMID 26598693; settings: reference; previously published results; cited from earlier work
[2] = system: HBV core protein variant Y118F; parameters: method as in PMID 26598693; settings: previously published results; cited from earlier work
[3] = system: HBV core protein variant T109S; parameters: method as in PMID 26598693; settings: previously published results; cited from earlier work
[4] = system: HBV core protein variant T109M; parameters: method as in PMID 26598693; settings: previously published results; cited from earlier work
[5] = system: HBV core protein variant T109I; parameters: method as in PMID 26598693; settings: previously published results; cited from earlier work
[6] = system: HBV core protein variant I105L; parameters: method as in PMID 26598693; settings: previously published results; cited from earlier work
[7] = system: HBV core protein variant I105T; parameters: method as in PMID 26598693; settings: previously published results; cited from earlier work
[8] = system: HBV core protein variant I105V; parameters: method as in PMID 26598693; settings: previously published results; cited from earlier work
HBV [9] = experiment: Antiviral studies using HepG2.2.15 cells (HBV DNA and HBV RNA readouts); type: cell-based, hepatitis B virus (GT D); settings: HepG2.2.15 cells
Protocol: In combination studies, cells were treated with compounds either alone or in combination after combining the compounds in a checkerboard format. In studies examining the effect of human serum, serially diluted NVR 3-778 was added into cell culture medium containing 0% to 40% human serum (BioreclamationIVT). Cells were incubated with the compounds for 3 days, after which the medium was removed, fresh medium containing the compounds was added to the cells, and the cells were incubated for another 3 days prior to harvesting of the supernatants or cells for antiviral assays. To quantify intracellular encapsidated rcDNA or encapsidated pgRNA, cells were first solubilized using lysis buffer containing 1% NP-40 and 10 mM CaCl2. The cytoplasmic fraction was then treated with S7 nuclease (6 units) to remove nonencapsidated nucleic acids, after which the S7 nuclease was inactivated by the addition of EDTA (0.5 M). […] The levels of HBV DNA were determined by a bDNA assay as described above (Affymetrix). Supernatants or cell lysates containing HBV RNA were treated with proteinase K (2.5 µg) at 50°C for 40 min, transferred to a capture plate containing HBV RNA probe sets, and hybridized overnight at 55°C. Captured HBV RNA was measured by the addition of a chemiluminescent substrate using a QuantiGene assay (Affymetrix). […] At day 6, the CellTiter-Glo reagent was added to the cells and viability was determined according to the manufacturer’s protocol (Promega). Luminescence signals were measured at 0.2 s using a Victor X4 multimode plate reader (PerkinElmer).

HBV [10] = experiment: Combination study of NVR 3-778 with nucleos(t)ide analogs in HepG2.2.15 cells (MacSynergy II, CalcuSyn); type: cell-based, hepatitis B virus (GT D); settings: in combination with NVR 3-778; for Antagonism / Synergy: HepG2.2.15 cells, 6 days, MacSynergy II, 95% confidence; for CalcuSyn-predicted effect: based on overall CI; for MacSynergy-predicted effect: volumes <25 µM^2% defined as insignificant
Protocol: The effect of the compound combinations on cell viability was evaluated by measuring the intracellular ATP levels of HepG2.2.15 cells.
HepG2.2.15 cells were seeded in 96-well plates at a density of 40,000 cells/well and incubated with serially diluted compounds at a final DMSO concentration of 0.5%. In combination studies, cells were treated with compounds either alone or in combination after combining the compounds in a checkerboard format. In studies examining the effect of human serum, serially diluted NVR 3-778 was added into cell culture medium containing 0% to 40% human serum (BioreclamationIVT). Cells were incubated with the compounds for 3 days, after which the medium was removed, fresh medium containing the compounds was added to the cells, and the cells were incubated for another 3 days prior to harvesting of the supernatants or cells for antiviral assays. To quantify intracellular encapsidated rcDNA or encapsidated pgRNA, cells were first solubilized using lysis buffer containing 1% NP-40 and 10 mM CaCl2. The cytoplasmic fraction was then treated with S7 nuclease (6 units) to remove nonencapsidated nucleic acids, after which the S7 nuclease was inactivated by the addition of EDTA (0.5 M). To quantify extracellular HBV DNA or HBV RNA, supernatants from HepG2.2.15 cells were treated with Turbo DNase at 37°C for 60 min, followed by inactivation of DNase at 75°C for 15 min. The levels of HBV DNA were determined by a bDNA assay as described above (Affymetrix). Supernatants or cell lysates containing HBV RNA were treated with proteinase K (2.5 µg) at 50°C for 40 min, transferred to a capture plate containing HBV RNA probe sets, and hybridized overnight at 55°C. Captured HBV RNA was measured by the addition of a chemiluminescent substrate using a QuantiGene assay (Affymetrix). To determine the cytotoxicity effect of the compounds on proliferating cells, HepG2.2.15 cells were seeded in 96-well plates at a density of 10,000 cells/well and incubated with serially diluted compounds at a final DMSO concentration of 0.5% for 3 days, after which the medium was removed, fresh medium containing the compounds was added to the cells, and the cells were incubated for another 3 days. At day 6, the CellTiter-Glo reagent was added to the cells and viability was determined according to the manufacturer’s protocol (Promega). Luminescence signals were measured at 0.2 s using a Victor X4 multimode plate reader (PerkinElmer).
(§1) To determine percent inhibition, the mean background signal from wells containing only culture medium was subtracted from the signal for all other samples, and percent inhibition at each compound concentration was calculated by normalization to the signals for HepG2.2.15 cells treated with 0.5% DMSO. […] Both CalcuSyn and MacSynergy II (Ann Arbor, MI) software were used to evaluate the effect of compound combinations ([27]). After data analysis at the 95% confidence level, values of synergy or antagonism of <25 µM^2% were defined as insignificant, those between 25 and 50 µM^2% were defined as minor, those between 50 and 100 µM^2% were defined as moderate, and those of >100 µM^2% were defined as strong.

HBV T109M core variant = system: HBV T109M core variant; parameters: method as in doi:10.1016/S0168-8278(18)30439-2; settings: phase 1b; cited from earlier work
HBV GT B (wild-type HBV) [11] = experiment: Transient-transfection antiviral study in HepG2 cells, GT B (wild-type HBV); type: cell-based, hepatitis B virus; settings: Hepatitis B virus, HepG2, read-out: WT EC50
Protocol: (§4) Cells were cotransfected with the HBV plasmids (100 ng/well) and a Gaussia expression plasmid (10 ng/well) (Thermo Scientific) using the Lipofectamine LTX Plus transfection reagent (Life Technologies). Transfection mixtures were removed after overnight incubation, and cells were treated with serially diluted NVR 3-778 at a final dimethyl sulfoxide (DMSO) concentration of 0.5%. After 3 days of incubation with the compound, the supernatants were collected and secreted Gaussia luciferase was measured using a Gaussia Flash luciferase assay kit (Thermo Scientific). […] Samples were diluted into lysis buffer (Affymetrix) containing 2.5 µg proteinase K (Affymetrix) at 50°C for 40 min. Intracellular encapsidated HBV DNA was denatured for 30 min at 25°C in 0.2 M NaOH (Sigma) and incubated with HBV DNA probes designed to hybridize to the minus-strand HBV DNA (Affymetrix). The denatured DNA was subsequently detected using a QuantiGene assay kit, according to the branched DNA (bDNA) assay recommended by the manufacturer (Affymetrix).

HBV rtA181V variant = experiment: microbe, parasite or virus in culture; type: cell-based, hepatitis B virus; settings: for EC50 fold change, rtA181V: ratio of mean EC50 against variant over WT HBV, HepG2 cells
Text: (§2) Plasmids containing HBV DNA with rtN236T, rtA181V, rtA181V/N236T, and rtL180M/M204V/N236T were generated using the GT B WT or rtL180M/M204V DNA-containing plasmids and site-directed mutagenesis (Agilent Technologies). A panel of nine different HBV core variants (cW102G, cW102R, cI105V, cI105L, cI105T, cT109S, cT109M, cT109I, and cY118F) was generated, also using the GT B WT DNA-containing plasmid and site-directed mutagenesis. The full-length genome from all plasmids was sequenced to confirm that only the intended nucleotide change(s) was present. Finally, HBV sequences from genotypes A (GenBank accession number AF305422), C (GenBank accession number AB033550), D (GenBank accession number V01460), E (GenBank accession number AB274971), F (GenBank accession number AB036912), G (GenBank accession number AF160501), and H (GenBank accession number AB375159) were gene synthesized as 1.1 times the genome length together with part of the CMV promoter at the 5′ end. The gene-synthesized piece was validated by sequencing and subcloned into the pCMV-HBV plasmid using the restriction sites SalI and NdeI (Genewiz, USA).
(§3) HepG2 cells were seeded in 96-well plates at a density of 20,000 cells/well and allowed to attach overnight at 37°C in 5% CO2. Cells were cotransfected with the HBV plasmids (100 ng/well) and a Gaussia expression plasmid (10 ng/well) (Thermo Scientific) using the Lipofectamine LTX Plus transfection reagent (Life Technologies). Transfection mixtures were removed after overnight incubation, and cells were treated with serially diluted NVR 3-778 at a final dimethyl sulfoxide (DMSO) concentration of 0.5%. After 3 days of incubation with the compound, the supernatants were collected and secreted Gaussia luciferase was measured using a Gaussia Flash luciferase assay kit (Thermo Scientific). Cells were lysed with 0.33% NP-40 (Thermo Scientific), and the cytoplasmic fractions were treated with 2 units of Turbo DNase (Invitrogen) and 10 units of S7 nuclease (Roche) in CutSmart buffer (New England Biolabs) containing 25 µM CaCl2 (G-Biosciences) at 37°C for 60 min, followed by inactivation of the enzymes at 75°C for 15 min. Samples were diluted into lysis buffer (Affymetrix) containing 2.5 µg proteinase K (Affymetrix) at 50°C for 40 min. Intracellular encapsidated HBV DNA was denatured for 30 min at 25°C in 0.2 M NaOH (Sigma) and incubated with HBV DNA probes designed to hybridize to the minus-strand HBV DNA (Affymetrix). The denatured DNA was subsequently detected using a QuantiGene assay kit, according to the branched DNA (bDNA) assay recommended by the manufacturer (Affymetrix).
as §1

[12] = system: HBV rtL180M/M204V variant; experiment: microbe, parasite or virus in culture; type: cell-based, hepatitis B virus; settings: for EC50 fold change, rtL180M/M204V: ratio of mean EC50 against variant over WT HBV, HepG2 cells
Text: as §2, §3, §1

[13] = system: HBV rtL180M/M204V/N236T variant; experiment: microbe, parasite or virus in culture; type: cell-based, hepatitis B virus; settings: ratio of mean EC50 against variant over WT HBV, HepG2 cells
Text: as §2, §3, §1

[14] = system: HBV rtA181V/N236T variant; type: cell-based, hepatitis B virus; settings: ratio of mean EC50 against variant over WT HBV, HepG2 cells
Text: as §2, §3, §1

HBV rtN236T variant = type: cell-based, hepatitis B virus; settings: ratio of mean EC50 against variant over WT HBV, HepG2 cells
Text: as §2, §3, §1

[15] = system: nucleoside-resistant HBV variants; experiment: Transient-transfection antiviral study, panel of nucleoside-resistant HBV variants (summary statements); type: cell-based, hepatitis B virus; settings: versus WT HBV
Protocol: as §4

## COC(=O)C1=C(CN2CCOCC2)NC(c2nccs2)=N[C@@H]1c1ccc(F)cc1Br [NVR-010-001-E2]
HBV GT B (wild-type HBV) [1]
  EC50 FC, wild type: 1 fold
[2]
  EC50 FC, Y118F: 3.7 fold
[3]
  EC50 FC, T109S: 0.43 fold
[4]
  EC50 FC, T109M: 2.8 fold
[5]
  EC50 FC, T109I: 9.2 fold
[6]
  EC50 FC, I105L: 0.49 fold
[7]
  EC50 FC, I105T: 1.2 fold
[8]
  EC50 FC, I105V: 1.3 fold

## C[C@H](Cn1cnc2c(N)ncnc21)OCP(=O)(O)O [TFV, tenofovir]
HBV [9]
  Effect on HBV DNA production: inhibited HBV DNA production
HBV [9]; dose-dependent
  Effect on intracellular encapsidated HBV RNA and secreted HBV RNA: increased the levels
HBV [10]
  Antagonism: −7.3 μM^2%
  Synergy: 18.5 μM^2%
  CalcuSyn-predicted effect: Slight to moderate synergy
  MacSynergy-predicted effect: Additive

## O=C(NCc1cnc(C(F)(F)F)s1)c1ccc2c(c1)NC(=O)c1ccccc1S2(=O)=O [ABI-H0731]
HBV T109M core variant
  Antiviral response in a patient with a preexisting T109M core variant: reduced antiviral response

## C=C1[C@H](CO)[C@@H](O)C[C@@H]1n1cnc2c(=O)[nH]c(N)nc21 [ETV, entecavir]
HBV GT B (wild-type HBV) [11]
  EC50: 0.0014 ± 0.0004 µM
HBV rtA181V variant
  EC50 fold change, rtA181V: 2.2 ± 0.5^a fold
[12]
  EC50 fold change, rtL180M/M204V: 31 fold and 31 ± 16^a fold
[13]
  EC50 fold change, rtL180M/M204V/N236T: 14 fold and 14 ± 4^a fold
[14]
  EC50 fold change, rtA181V/N236T: 1.8 ± 0.6^d fold
HBV rtN236T variant
  EC50 fold change, rtN236T: 0.67 ± 0.22^d fold
HBV [10]
  Antagonism: −16.5 μM^2%
  Synergy: 1.0 μM^2%
  CalcuSyn-predicted effect: Slight to moderate synergy
  MacSynergy-predicted effect: Additive

## COC(=O)C1=C(C)NC(c2ncc(F)cc2F)=N[C@H]1c1ccc(F)cc1Cl [Bay 41-4109]
HBV GT B (wild-type HBV) [1]
  EC50 FC, wild type: 1 fold
[2]
  EC50 FC, Y118F: 8.2 fold
[3]
  EC50 FC, T109S: 0.40 fold
[4]
  EC50 FC, T109M: 3.7 fold
[5]
  EC50 FC, T109I: 21 fold
[6]
  EC50 FC, I105L: 0.44 fold
[7]
  EC50 FC, I105T: 1.5 fold
[8]
  EC50 FC, I105V: 1.3 fold

## CC(C)OC(=O)OCOP(=O)(CO[C@H](C)Cn1cnc2c(N)ncnc21)OCOC(=O)OC(C)C [TDF, Tenofovir disoproxil fumarate]
HBV GT B (wild-type HBV) [11]
  EC50: 0.032 ± 0.015 µM
HBV rtA181V variant; Hepatitis B virus, HepG2, read-out: EC50 (mean), rtA181V variant
  EC50: 0.043 µM
HBV rtA181V variant
  EC50 fold change, rtA181V: 1.4 ± 0.05^d fold
[12]; Hepatitis B virus, HepG2, read-out: EC50 (mean), rtL180M/M204V variant
  EC50: 0.034 µM
[12]
  EC50 fold change, rtL180M/M204V: 1.1 ± 0.3^d fold
[13]
  EC50 fold change, rtL180M/M204V/N236T: 2.9 ± 1.5^b fold
[14]
  EC50 fold change, rtA181V/N236T: 2.8 ± 1.4^b fold
HBV rtN236T variant
  EC50 fold change, rtN236T: 2.2 ± 1.0^b fold
[15]
  Reduction of antiviral activity against the variants that contained rtN236T: about 3 fold
